Patent US6706663B2, “Herbicidal 3-heterocyclic substituted benzisothiazole and benzisoxazole compounds” (Wyeth, priority 2000, dated 2004)

Legend:
[1] = system: TRZAWR (Wheat, Winter, cv Riband); assay: Preemergence herbicidal evaluation; type: in vivo, Triticum aestivum; conditions: preemergence, rated 4-5 weeks after treatment
Summary of the method: (§1)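 Visual 0–9 rating versus control (stand, vigor, malformation, size, chlorosis, overall appearance), scored four to five weeks post-treatment. Preemergence spray of aqueous acetone solution onto freshly seeded soil cups; plants grown under conventional greenhouse care.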

[2] = system: CASOB (Cassia obtusifolia); assay: Postemergence herbicidal evaluation; type: in vivo, L.
Summary of the method: (§2)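 Seedlings grown about two weeks in flats, sprayed, then kept under standard greenhouse care. Rated visually 4–5 weeks after treatment on a 0–9 scale (stand, vigour, malformation, size, chlorosis, overall appearance) relative to untreated control; repeat tests averaged.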

[3] = system: AMBEL (Ambrosia artemisifolia); assay: Postemergence herbicidal evaluation; type: in vivo, L.
Summary of the method: as §2

[4] = system: CHEAL (Chenopodium album); assay: Postemergence herbicidal evaluation; type: in vivo, L.
Summary of the method: as §2

[5] = system: ORYSAT (Rice, Tebonnet); assay: Preemergence herbicidal evaluation; type: in vivo, Oryza sativa, (L.) Tebonnet; conditions: preemergence, rated 4-5 weeks after treatment
[6] = system: ORYSAT (Rice, Tebonnet); assay: Postemergence herbicidal evaluation; type: in vivo, Oryza sativa, (L.) Tebonnet
Summary of the method: as §2

[7] = system: GLXMAW (Soybean, Williams); assay: Postemergence herbicidal evaluation; type: in vivo, Glycine max, (L.) Merr. cv Williams
Summary of the method: as §2

[8] = system: ORYSAT (Rice, Tebonnet); assay: Flooded paddy, post-transplant rice tolerance; type: in vivo, Oryza sativa, (L.) Tebonnet; conditions: flooded paddy, post-transplant rice, rated 3-4 weeks after treatment, 0-9 rating scale
Summary of the method: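 Steps: transplant two ten-day-old seedlings into silt loam; flood to 1.5-3 cm above soil; apply herbicide post-transplant; maintain water on greenhouse benches; rate stand, vigor, malformation, size and chlorosis on a 0-9 visual scale versus control.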

[9] = system: SAGPY (Sagittaria pygmaea); assay: Flooded paddy, preemergence weed control; type: in vivo, L.; conditions: rated 3-4 weeks after treatment, 0-9 rating scale
Summary of the method: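 In this preemergence paddy assay, weed seeds or organs are sown at up to 0.5 cm in silt loam and covered by 1.5–3 cm of water for the full test period. After treatment the pots are kept in a greenhouse, and herbicidal effect is rated 0-9 visually against a control.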

[10] = system: ABUTH (Abutilon theophrasti); assay: Preemergence herbicidal evaluation; type: in vivo, Medic.; conditions: preemergence, rated 4-5 weeks after treatment
[11] = system: GALAP (Galium aparine); assay: Preemergence herbicidal evaluation; type: in vivo; conditions: preemergence, rated 4-5 weeks after treatment
Summary of the method: as §1

[12] = system: ECHCG (Echinochloa crus-galli); assay: Postemergence herbicidal evaluation; type: in vivo, (L.) Beau
Summary of the method: as §2

[13] = system: ABUTH (Abutilon theophrasti); assay: Postemergence herbicidal evaluation; type: in vivo, Medic.
Summary of the method: as §2

[14] = system: CASOB (Cassia obtusifolia); assay: Preemergence herbicidal evaluation; type: in vivo, L.; conditions: preemergence, rated 4-5 weeks after treatment
Summary of the method: as §1

[15] = system: AMBEL (Ambrosia artemisifolia); assay: Preemergence herbicidal evaluation; type: in vivo, L.; conditions: preemergence, rated 4-5 weeks after treatment
Summary of the method: as §1

[16] = system: CHEAL (Chenopodium album); assay: Preemergence herbicidal evaluation; type: in vivo, L.; conditions: preemergence, rated 4-5 weeks after treatment
Summary of the method: as §1

[17] = system: ZEAMX (Corn, Field); assay: Postemergence herbicidal evaluation; type: in vivo, Zea mays, L.
Summary of the method: as §2

[18] = system: GALAP (Galium aparine); assay: Postemergence herbicidal evaluation; type: in vivo
Summary of the method: as §2

[19] = system: IPOHE (Ipomoea hederacea); assay: Preemergence herbicidal evaluation; type: in vivo, (L.) Jacq.; conditions: preemergence, rated 4-5 weeks after treatment
[20] = system: CYPSE (Cyperus serotinus); assay: Flooded paddy, preemergence weed control; type: in vivo, Rottb.; conditions: rated 3-4 weeks after treatment, 0-9 rating scale
Summary of the method: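 Herbicidal effect was scored visually on a 0–9 scale against an untreated control 3–4 weeks after treatment. Compounds were applied preemergence as 50/50 v/v aqueous/acetone mixtures into flood water (1.5–3 cm deep over silt loam), at roughly 0.0080 to 0.1250 kg/ha active ingredient.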

## CCOC(=O)C1CS[C@H](c2nsc3ccc(-n4c(=O)cc(C(F)(F)F)n(C)c4=O)cc23)N1 (stereo partly drawn) [Compound 2, ethyl (R)-2-[5-[3,6-dihydro-3-methyl-2,6-dioxo-4-(trifluoromethyl)-1(2H)-pyrimidinyl]-1,2-benzisothiazol-3-yl]-4-thiazolidinecarboxylate]
[1]; Rate 0.0620 kg/ha
  TRZAWR preemergence herbicidal rating: 2.0
[1]; Rate 0.1250 kg/ha
  TRZAWR preemergence herbicidal rating: 5.0
[1]; Rate 0.2500 kg/ha
  TRZAWR preemergence herbicidal rating: 7.0
[2]; rate 0.0320 kg/ha
  Postemergence herbicidal rating, CASOB: 4.0
[2]; rate 0.0620 kg/ha
  Postemergence herbicidal rating, CASOB: 4.0
[3]; rate 0.0320 kg/ha
  Postemergence herbicidal rating, AMBEL: 7.0
[3]; rate 0.0620 kg/ha
  Postemergence herbicidal rating, AMBEL: 9.0
[4]; rate 0.0320 kg/ha
  Postemergence herbicidal rating, CHEAL: 9.0
[4]; rate 0.0620 kg/ha
  Postemergence herbicidal rating, CHEAL: 9.0
[5]; Rate 0.0620 kg/ha
  ORYSAT preemergence herbicidal rating: 3.0
[5]; Rate 0.1250 kg/ha
  ORYSAT preemergence herbicidal rating: 6.0
[5]; Rate 0.2500 kg/ha
  ORYSAT preemergence herbicidal rating: 7.0
[6]; rate 0.0320 kg/ha
  Postemergence herbicidal rating, ORYSAT: 5.0
[6]; rate 0.0620 kg/ha
  Postemergence herbicidal rating, ORYSAT: 6.5
[7]; rate 0.0320 kg/ha
  Postemergence herbicidal rating, GLXMAW: 7.0
[7]; rate 0.0620 kg/ha
  Postemergence herbicidal rating, GLXMAW: 7.5
[8]; rate 0.0320 kg/ha
  herbicidal rating, ORYSAT (rice tolerance): 1.0
[8]; rate 0.1250 kg/ha
  herbicidal rating, ORYSAT (rice tolerance): 4.0
[9]; rate 0.0320 kg/ha
  herbicidal rating, SAGPY: 0.0
[9]; rate 0.1250 kg/ha
  herbicidal rating, SAGPY: 0.0
[10]; Rate 0.0620 kg/ha
  ABUTH preemergence herbicidal rating: 9.0
[10]; Rate 0.1250 kg/ha
  ABUTH preemergence herbicidal rating: 9.0
[10]; Rate 0.2500 kg/ha
  ABUTH preemergence herbicidal rating: 9.0
[11]; Rate 0.0620 kg/ha
  GALAP preemergence herbicidal rating: 5.0
[11]; Rate 0.1250 kg/ha
  GALAP preemergence herbicidal rating: 9.0
[11]; Rate 0.2500 kg/ha
  GALAP preemergence herbicidal rating: 9.0
[12]; rate 0.0320 kg/ha
  Postemergence herbicidal rating, ECHCG: 3.0
[12]; rate 0.0620 kg/ha
  Postemergence herbicidal rating, ECHCG: 4.0
[13]; rate 0.0320 kg/ha
  Postemergence herbicidal rating, ABUTH: 9.0
[13]; rate 0.0620 kg/ha
  Postemergence herbicidal rating, ABUTH: 9.0
[14]; Rate 0.0620 kg/ha
  CASOB preemergence herbicidal rating: 5.0
[14]; Rate 0.1250 kg/ha
  CASOB preemergence herbicidal rating: 7.5
[14]; Rate 0.2500 kg/ha
  CASOB preemergence herbicidal rating: 7.0
[15]; Rate 0.0620 kg/ha
  AMBEL preemergence herbicidal rating: 7.0
[15]; Rate 0.1250 kg/ha
  AMBEL preemergence herbicidal rating: 8.0
[15]; Rate 0.2500 kg/ha
  AMBEL preemergence herbicidal rating: 9.0
[16]; Rate 0.0620 kg/ha
  CHEAL preemergence herbicidal rating: 9.0
[16]; Rate 0.1250 kg/ha
  CHEAL preemergence herbicidal rating: 9.0
[16]; Rate 0.2500 kg/ha
  CHEAL preemergence herbicidal rating: 9.0
[17]; rate 0.0320 kg/ha
  Postemergence herbicidal rating, ZEAMX: 7.0
[17]; rate 0.0620 kg/ha
  Postemergence herbicidal rating, ZEAMX: 7.0
[18]; rate 0.0320 kg/ha
  Postemergence herbicidal rating, GALAP: 5.0
[18]; rate 0.0620 kg/ha
  Postemergence herbicidal rating, GALAP: 6.0
[19]; Rate 0.0620 kg/ha
  IPOHE preemergence herbicidal rating: 9.0
[19]; Rate 0.1250 kg/ha
  IPOHE preemergence herbicidal rating: 9.0
[19]; Rate 0.2500 kg/ha
  IPOHE preemergence herbicidal rating: 9.0
[20]; rate 0.0320 kg/ha
  herbicidal rating, CYPSE: 0.0
[20]; rate 0.1250 kg/ha
  herbicidal rating, CYPSE: 0.0

## Cn1c(C(F)(F)F)cc(=O)n(-c2ccc3snc(-c4cccs4)c3c2)c1=O [Compound 3, 1-methyl-3-[3-(2-thienyl)-1,2-benzisothiazol-5-yl]-6-(trifluoromethyl)uracil]
[1]; Rate 0.0620 kg/ha
  TRZAWR preemergence herbicidal rating: 4.0
[1]; Rate 0.1250 kg/ha
  TRZAWR preemergence herbicidal rating: 5.0
[1]; Rate 0.2500 kg/ha
  TRZAWR preemergence herbicidal rating: 6.0
[2]; rate 0.0320 kg/ha
  Postemergence herbicidal rating, CASOB: 4.0
[2]; rate 0.0620 kg/ha
  Postemergence herbicidal rating, CASOB: 5.0
[2]; rate 0.1250 kg/ha
  Postemergence herbicidal rating, CASOB: 9.0
[3]; rate 0.0320 kg/ha
  Postemergence herbicidal rating, AMBEL: 9.0
[3]; rate 0.0620 kg/ha
  Postemergence herbicidal rating, AMBEL: 9.0
[3]; rate 0.1250 kg/ha
  Postemergence herbicidal rating, AMBEL: 9.0
[4]; rate 0.0320 kg/ha
  Postemergence herbicidal rating, CHEAL: 9.0
[4]; rate 0.0620 kg/ha
  Postemergence herbicidal rating, CHEAL: 9.0
[4]; rate 0.1250 kg/ha
  Postemergence herbicidal rating, CHEAL: 9.0
[5]; Rate 0.0620 kg/ha
  ORYSAT preemergence herbicidal rating: 6.0
[5]; Rate 0.1250 kg/ha
  ORYSAT preemergence herbicidal rating: 5.0
[5]; Rate 0.2500 kg/ha
  ORYSAT preemergence herbicidal rating: 5.0
[6]; rate 0.0320 kg/ha
  Postemergence herbicidal rating, ORYSAT: 3.0
[6]; rate 0.0620 kg/ha
  Postemergence herbicidal rating, ORYSAT: 4.0
[6]; rate 0.1250 kg/ha
  Postemergence herbicidal rating, ORYSAT: 4.5
[7]; rate 0.0320 kg/ha
  Postemergence herbicidal rating, GLXMAW: 6.0
[7]; rate 0.0620 kg/ha
  Postemergence herbicidal rating, GLXMAW: 6.5
[7]; rate 0.1250 kg/ha
  Postemergence herbicidal rating, GLXMAW: 8.5
[8]; rate 0.0080 kg/ha
  herbicidal rating, ORYSAT (rice tolerance): 3.0
[8]; rate 0.0320 kg/ha
  herbicidal rating, ORYSAT (rice tolerance): 3.5
[8]; rate 0.1250 kg/ha
  herbicidal rating, ORYSAT (rice tolerance): 5.5
[9]; rate 0.0080 kg/ha
  herbicidal rating, SAGPY: 0.0
[9]; rate 0.0320 kg/ha
  herbicidal rating, SAGPY: 1.0
[9]; rate 0.1250 kg/ha
  herbicidal rating, SAGPY: 5.5
[10]; Rate 0.0620 kg/ha
  ABUTH preemergence herbicidal rating: 8.5
[10]; Rate 0.1250 kg/ha
  ABUTH preemergence herbicidal rating: 9.0
[10]; Rate 0.2500 kg/ha
  ABUTH preemergence herbicidal rating: 9.0
[11]; Rate 0.0620 kg/ha
  GALAP preemergence herbicidal rating: 9.0
[11]; Rate 0.1250 kg/ha
  GALAP preemergence herbicidal rating: 9.0
[11]; Rate 0.2500 kg/ha
  GALAP preemergence herbicidal rating: 9.0
[12]; rate 0.0320 kg/ha
  Postemergence herbicidal rating, ECHCG: 2.0
[12]; rate 0.0620 kg/ha
  Postemergence herbicidal rating, ECHCG: 3.0
[12]; rate 0.1250 kg/ha
  Postemergence herbicidal rating, ECHCG: 4.0
[13]; rate 0.0320 kg/ha
  Postemergence herbicidal rating, ABUTH: 9.0
[13]; rate 0.0620 kg/ha
  Postemergence herbicidal rating, ABUTH: 9.0
[13]; rate 0.1250 kg/ha
  Postemergence herbicidal rating, ABUTH: 9.0
[14]; Rate 0.0620 kg/ha
  CASOB preemergence herbicidal rating: 4.0
[14]; Rate 0.1250 kg/ha
  CASOB preemergence herbicidal rating: 4.5
[14]; Rate 0.2500 kg/ha
  CASOB preemergence herbicidal rating: 5.5
[15]; Rate 0.0620 kg/ha
  AMBEL preemergence herbicidal rating: 8.0
[15]; Rate 0.1250 kg/ha
  AMBEL preemergence herbicidal rating: 9.0
[15]; Rate 0.2500 kg/ha
  AMBEL preemergence herbicidal rating: 9.0
[16]; Rate 0.0620 kg/ha
  CHEAL preemergence herbicidal rating: 9.0
[16]; Rate 0.1250 kg/ha
  CHEAL preemergence herbicidal rating: 9.0
[16]; Rate 0.2500 kg/ha
  CHEAL preemergence herbicidal rating: 9.0
[17]; rate 0.0320 kg/ha
  Postemergence herbicidal rating, ZEAMX: 5.0
[17]; rate 0.0620 kg/ha
  Postemergence herbicidal rating, ZEAMX: 5.5
[17]; rate 0.1250 kg/ha
  Postemergence herbicidal rating, ZEAMX: 6.5
[18]; rate 0.0320 kg/ha
  Postemergence herbicidal rating, GALAP: 5.0
[18]; rate 0.0620 kg/ha
  Postemergence herbicidal rating, GALAP: 4.0
[18]; rate 0.1250 kg/ha
  Postemergence herbicidal rating, GALAP: 6.0
[19]; Rate 0.0620 kg/ha
  IPOHE preemergence herbicidal rating: 9.0
[19]; Rate 0.1250 kg/ha
  IPOHE preemergence herbicidal rating: 9.0
[19]; Rate 0.2500 kg/ha
  IPOHE preemergence herbicidal rating: 9.0
[20]; rate 0.0080 kg/ha
  herbicidal rating, CYPSE: 0.0
[20]; rate 0.0320 kg/ha
  herbicidal rating, CYPSE: 6.5
[20]; rate 0.1250 kg/ha
  herbicidal rating, CYPSE: 6.5
